Source: patent publication US11655459B2, “Methods for reprogramming somatic cells” (Whitehead Institute for Biomedical Research, priority 2003, dated 2023)
Several values for one entry are separate records, joined by “and”; a condition that tells them apart may be missing. Equal entries are not always repeated.

Test system: fibroblasts derived from tail biopsies of mice that carry the inducible Oct4 transgene
Test: Nuclear transfer experiment: in vitro development of clones derived from Oct4-induced fibroblasts
Format: cell-based, mouse
Protocol: Nuclear transfer was performed on fibroblasts derived from tail biopsies of mice that carry the inducible Oct4 transgene. Dox induction was for 24 hours prior to nuclear transfer. Cloned embryos were then activated and cultured to the blastocyst stage to derive ES cells as described previously (Hochedlinger and Jaenisch, 2002). […] [table]

[1] = Dox induction 24 hours prior to nuclear transfer, fraction of eggs with pronucleus formation, single experiment, listed as Dox
[2] = Oct4 induced, Expt. #3 and #4 together

**Q.** What does the source list for `C[C@H]1c2cccc(O)c2C(=O)C2=C(O)[C@]3(O)C(=O)C(C(N)=O)=C(O)[C@@H](N(C)C)[C@@H]3[C@@H](O)[C@@H]21` [doxycycline]?
**A.** Blastocysts (% PN) [1]: 27% and 21%; ES lines (% PN) [1]: 5% and 9%; Blastocysts (number) (Dox induction 24 hours prior to nuclear transfer, single experiment): 10; ES lines (number) (Dox induction 24 hours prior to nuclear transfer, single experiment, listed as Dox): 2 and 4; Blastocysts (% PN), average of experiments [2]: 24%; ES lines (% PN), average of experiments [2]: 7%
